The target in the experiment is PodA30–162 (Mycolicibacterium fortuitum, UniProt K0V2D8). Description: X-ray crystal structure, […] Å. Conditions: co-crystal; solvent-exposed active site, stacking with F70. The class given is binding.

Molecules are shown by their SMILES.

`Oc1cccc2nc3ccccc3nc12` [1-hydroxyphenazine]: the “X-ray crystal structure, 1.8 Å” value was “Crystal formation occurred only in the presence of 1-OH-PHZ, which was visible in a putative”.
